{"source": "patent US20110207723A1", "about": "“NOVEL FUSED AMINODIHYDROTHIAZINE DERIVATIVE” (EISAI R&D MANAGEMENT CO., LTD., priority 2008, published 2011)", "note": "pIC50: −log10 of the molar value."}
{"tested_on": "Aβ42 production", "assay": "Quantification of Aβ peptide in culture of neurons from rat fetus brain (Aβ42 ELISA)", "format": "cell-based", "settings": "Neuron, 72 h, rat primary neuronal culture (embryonic day 18 Wistar rat cerebral cortex), medium collected three days after addition of compound, read-out: Aβ42 production reducing effect IC50", "method_in_brief": "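Primary cortical neurons from E18 Wistar rat embryos, cultured 4 days in Neurobasal/B27/2-ME, then treated 3 days with compound in Neurobasal/B27 (final DMSO 1% or less; DMSO control). Conditioned medium collected; Aβx-42 measured undiluted by sandwich ELISA kit.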"}
{"smiles": "NC1=N[C@@]2(c3cc(NC(=O)c4ccc(Cl)cn4)ccc3F)COC[C@@H](F)[C@H]2CS1", "note": "[Example 18, N-[3-((4aS,5S,8aS)-2-amino-5-fluoro-4,4a,5,6-tetrahydro-7-oxa-3-thia-1-azanaphthalen-8a-yl)-4-fluorophenyl]-5-chloropyridine-2-carboxamide]", "pIC50": 8.15}
{"smiles": "NC1=N[C@@]2(c3cc(NC(=O)c4ccc(C(F)(F)F)cn4)ccc3F)COC[C@@H](F)[C@H]2CS1", "note": "[Example 19, N-[3-((4aS,5S,8aS)-2-amino-5-fluoro-4,4a,5,6-tetrahydro-7-oxa-3-thia-1-azanaphthalen-8a-yl)-4-fluorophenyl]-5-trifluoromethylpyridine-2-carboxamide]", "pIC50": 8.70}
{"smiles": "NC1=N[C@@]2(c3cc(NC(=O)c4ccc(OC(F)F)cn4)ccc3F)COC[C@@H](F)[C@H]2CS1", "note": "[Example 20, N-[3-((4aS,5S,8aS)-2-amino-5-fluoro-4,4a,5,6-tetrahydro-7-oxa-3-thia-1-azanaphthalen-8a-yl)-4-fluorophenyl]-5-difluoromethoxypyridine-2-carboxamide]", "pIC50": 8.05}
{"smiles": "NC1=N[C@@]2(c3cc(NC(=O)c4cnc(OC(F)F)cn4)ccc3F)COC[C@@H](F)[C@H]2CS1", "note": "[Example 22, N-[3-((4aS,5S,8aS)-2-amino-5-fluoro-4,4a,5,6-tetrahydro-7-oxa-3-thia-1-azanaphthalen-8a-yl)-4-fluorophenyl]-5-difluoromethoxypyrazine-2-carboxamide]", "pIC50": 8.40}
{"smiles": "NC1=N[C@@]2(c3cc(NC(=O)c4ccc(Cl)cn4)ccc3F)CO[C@@H](CO)C[C@H]2CS1", "note": "[Example 33, N-[3-((4aR,6R,8aS)-2-amino-6-hydroxymethyl-4,4a,5,6-tetrahydro-7-oxa-3-thia-1-azanaphthalen-8a-yl)-4-fluorophenyl]-5-chloropyridine-2-carboxamide]", "pIC50": 8.96}
{"smiles": "N#Cc1ccc(C(=O)Nc2ccc(F)c([C@]34CO[C@@H](CO)C[C@H]3CSC(N)=N4)c2)nc1", "note": "[Example 34, N-[3-((4aR,6R,8aS)-2-amino-6-hydroxymethyl-4,4a,5,6-tetrahydro-7-oxa-3-thia-1-azanaphthalen-8a-yl)-4-fluorophenyl]-5-cyanopyridine-2-carboxamide]", "pIC50": 8.70}
{"smiles": "N#Cc1ccc(C(=O)Nc2ccc(F)c([C@]34CO[C@@H](CF)C[C@H]3CSC(N)=N4)c2)nc1", "note": "[Example 44, N-[3-((4aR,6R,8aS)-2-amino-6-fluoromethyl-4,4a,5,6-tetrahydro-7-oxa-3-thia-1-azanaphthalen-8a-yl)-4-fluorophenyl]-5-cyanopyridine-2-carboxamide]", "pIC50": 9.15}
{"smiles": "NC1=N[C@@]2(c3cc(NC(=O)c4ccc(Cl)cn4)ccc3F)CO[C@@H](CF)C[C@H]2CS1", "note": "[Example 45, N-[3-((4aR,6R,8aS)-2-amino-6-fluoromethyl-4,4a,5,6-tetrahydro-7-oxa-3-thia-1-azanaphthalen-8a-yl)-4-fluorophenyl]-5-chloropyridine-2-carboxamide]", "pIC50": 8.70}
{"smiles": "NC1=N[C@@]2(c3cc(NC(=O)c4ccc(C(F)(F)F)cn4)ccc3F)CO[C@@H](CF)C[C@H]2CS1", "note": "[Example 46, N-[3-((4aR,6R,8aS)-2-amino-6-fluoromethyl-4,4a,5,6-tetrahydro-7-oxa-3-thia-1-azanaphthalen-8a-yl)-4-fluorophenyl]-5-trifluoromethylpyridine-2-carboxamide]", "pIC50": 9.00}
{"smiles": "NC1=N[C@@]2(c3cc(NC(=O)c4cnc(OCF)cn4)ccc3F)CO[C@@H](CF)C[C@H]2CS1", "note": "[Example 47, N-[3-((4aR,6R,8aS)-2-amino-6-fluoromethyl-4,4a,5,6-tetrahydro-7-oxa-3-thia-1-azanaphthalen-8a-yl)-4-fluorophenyl]-5-fluoromethoxypyrazine-2-carboxamide]", "pIC50": 8.40}
{"smiles": "NC1=N[C@@]2(c3cc(NC(=O)c4cnc(C(F)F)cn4)ccc3F)CO[C@@H](CF)C[C@H]2CS1", "note": "[Example 48, N-[3-((4aR,6R,8aS)-2-amino-6-fluoromethyl-4,4a,5,6-tetrahydro-7-oxa-3-thia-1-azanaphthalen-8a-yl)-4-fluorophenyl]-5-difluoromethylpyrazine-2-carboxamide]", "pIC50": 8.70}
{"smiles": "NC1=N[C@@]2(c3cc(-c4cccnc4F)ccc3F)CO[C@@H](CF)C[C@H]2CS1", "note": "[Example 60, (4aR,6R,8aS)-8a-[2-fluoro-5-(2-fluoropyridin-3-yl)phenyl]-6-fluoromethyl-4,4a,5,6,8,8a-hexahydro-7-oxa-3-thia-1-azanaphthalen-2-ylamine]", "pIC50": 7.49}
{"smiles": "NC1=N[C@@]2(c3cc(-c4cccnc4F)ccc3F)CO[C@@H](COCc3ccccc3)C[C@H]2CS1", "note": "[Example 66, (4aR,6R,8aS)-8a-[2-fluoro-5-(2-fluoropyridin-3-yl)phenyl]-6-benzyloxymethyl-4,4a,5,6,8,8a-hexahydro-7-oxa-3-thia-1-azanaphthalen-2-ylamine]", "pIC50": 6.58}
